Laboratory results from US20040224958A1, “Pyridopyrimidinone derivatives for treatment of neurodegenerative disease” (priority 2000, published 2004).
Read-outs that look alike come from different tables or passages of the source.

Tests used:
cdk2/cyclinA = cdk2/cyclinA (Homo sapiens, UniProt P24941); assay: Cyclin-Dependent Kinase Assay cdk2/cyclinA
Cdk5/p25 = Cdk5/p25 (Homo sapiens, UniProt Q00535); assay: Cyclin-Dependent Kinase 5 High Throughput Screening (cdk5-HTS) Assay; assay type: biochemical; details: high throughput screen
Method in brief: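 Cdk5/p25 (1.0 μg/mL) phosphorylates GST-RbCOOH (20 μg/mL) in 50 mM Tris pH 7.4 with 10 mM MgCl2 and 20 μM ATP spiked with [γ33P]ATP, 30 min at room temperature. After EDTA stop, substrate captured on glutathione-coated plates; 33P incorporation counted by scintillation; IC50 determined.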

cdk2/cyclinE = cdk2/cyclinE (Homo sapiens, UniProt P24941); assay: Cyclin-Dependent Kinase Assay cdk2/cyclinE
cdc2/cyclinB = cdc2/cyclinB (Homo sapiens, UniProt P06493); assay: Cyclin-Dependent Kinase Assay cdc2/cyclinB
cdk4/D = cdk4/D (Homo sapiens, UniProt P11802); assay: Cyclin-Dependent Kinase 4 (cdk4) Assay; assay type: biochemical; details: read-out: cdk4/D IC50
Chain of cdk4/D (P11802 whole entry): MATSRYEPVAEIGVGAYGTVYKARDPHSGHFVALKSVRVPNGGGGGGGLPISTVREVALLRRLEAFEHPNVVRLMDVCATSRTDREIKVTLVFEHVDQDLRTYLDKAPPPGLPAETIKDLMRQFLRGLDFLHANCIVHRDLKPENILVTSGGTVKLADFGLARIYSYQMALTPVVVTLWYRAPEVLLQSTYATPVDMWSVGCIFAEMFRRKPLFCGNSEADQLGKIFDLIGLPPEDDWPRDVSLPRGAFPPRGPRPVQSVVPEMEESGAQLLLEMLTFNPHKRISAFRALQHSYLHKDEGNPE
Chain of cdk4/D (P24385 whole entry, further chain): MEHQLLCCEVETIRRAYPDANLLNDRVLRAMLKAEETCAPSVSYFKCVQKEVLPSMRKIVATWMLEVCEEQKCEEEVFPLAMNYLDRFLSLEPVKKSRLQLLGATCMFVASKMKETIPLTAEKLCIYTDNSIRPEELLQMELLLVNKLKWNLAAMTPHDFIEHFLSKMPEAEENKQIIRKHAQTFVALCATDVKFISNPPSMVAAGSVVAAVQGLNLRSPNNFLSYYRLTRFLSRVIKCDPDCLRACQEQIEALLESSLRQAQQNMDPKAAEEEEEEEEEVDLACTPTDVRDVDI

Chain of cdc2/cyclinB (P06493 whole entry): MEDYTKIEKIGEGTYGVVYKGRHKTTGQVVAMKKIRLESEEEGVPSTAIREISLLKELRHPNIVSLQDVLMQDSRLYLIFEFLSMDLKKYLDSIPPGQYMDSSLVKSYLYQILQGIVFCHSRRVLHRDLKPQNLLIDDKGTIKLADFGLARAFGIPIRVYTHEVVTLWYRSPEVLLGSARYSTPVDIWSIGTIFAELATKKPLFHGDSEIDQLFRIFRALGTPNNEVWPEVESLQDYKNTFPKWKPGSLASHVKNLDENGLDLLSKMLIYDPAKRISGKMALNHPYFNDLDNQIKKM
Chain of cdc2/cyclinB (P14635 whole entry, further chain): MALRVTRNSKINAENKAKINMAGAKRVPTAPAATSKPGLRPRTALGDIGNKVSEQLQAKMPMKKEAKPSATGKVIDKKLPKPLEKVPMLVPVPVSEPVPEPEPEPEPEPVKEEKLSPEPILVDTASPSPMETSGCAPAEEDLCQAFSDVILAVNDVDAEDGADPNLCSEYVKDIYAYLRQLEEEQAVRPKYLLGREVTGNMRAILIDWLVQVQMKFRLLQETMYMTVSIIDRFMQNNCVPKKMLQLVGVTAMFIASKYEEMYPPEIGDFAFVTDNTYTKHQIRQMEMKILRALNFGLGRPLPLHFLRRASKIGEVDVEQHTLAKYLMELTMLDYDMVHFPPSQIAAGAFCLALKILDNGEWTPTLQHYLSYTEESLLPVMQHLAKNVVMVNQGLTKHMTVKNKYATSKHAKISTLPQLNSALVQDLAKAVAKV

Compound | IC50 (cdk2/cyclinA; cdk2/A IC50) | IC50 (Cdk5/p25) | IC50 (cdk2/cyclinE; cdk2/E IC50) | IC50 (cdc2/cyclinB) | IC50 (cdk4/D) | IC50 (cdk2/cyclinA; read-out: cdk2/A IC50) | IC50 (cdk2/cyclinE; read-out: cdk2/E IC50) | IC50 (cdc2/cyclinB; read-out: cdk1/B IC50)
CCCn1c(=O)ccc2cnc(Nc3ccc(OC)c(Cl)c3)nc21 [Example 310, 2-(3-Chloro-4-methoxy-phenylamino)-8-propyl-8H-pyrido[2,3-d]pyrimidin-7-one] | 331 nM | 69.4 nM | 138 nM | 215 nM | 486 nM |  |  | 
CCC(C)n1c(=O)ccc2cnc(Nc3ccc4[nH]nnc4c3)nc21 (centres unmarked) [Example 449, 2-(1H-Benzotriazol-5-ylamino)-8-sec-butyl-8H-pyrido[2,3-d]pyrimidin-7-one] | 41 nM | 7.8 nM | 17.3 nM | 77.5 nM | 128 nM |  |  | 
CCC(CC)n1c(=O)ccc2cnc(Nc3cc(OC)cc(C(F)(F)F)c3)nc21 [Example 508, 8-(1-Ethyl-propyl)-2-(3-methoxy-5-trifluoromethyl-phenylamino)-8H-pyrido[2,3-d]pyrimidin-7-one] | 2100 nM | 70 nM | 280 nM | 230 nM | 140 nM |  |  | 
CC(C)n1c(=O)ccc2cnc(Nc3ccc(NC(=O)OC(C)(C)C)cc3)nc21 [Example 411, [4-(8-Isopropyl-7-oxo-7,8-dihydro-pyrido[2,3-d]pyrimidin-2-ylamino)-phenyl]-carbamic acid tert-butyl ester] | 263 nM | 177 nM | 200 nM | 273 nM | 180 nM |  |  | 
CCCn1c(=O)ccc2cnc(Nc3ccc(S(N)(=O)=O)cc3)nc21 [Example 317, 4-(7-Oxo-8-propyl-7,8-dihydro-pyrido[2,3-d]pyrimidin-2-ylamino)-benzenesulfonamide] | 81.7 nM | 42.3 nM | 31.8 nM | 88.4 nM | 978 nM |  |  | 
CC(C)n1c(=O)ccc2cnc(Nc3ccc4[nH]nnc4c3)nc21 [Example 410, 2-(1H-Benzotriazol-5-ylamino)-8-isopropyl-8H-pyrido[2,3-d]pyrimidin-7-one] | 135 nM | 44.5 nM | 88 nM | 245 nM | 152 nM |  |  | 
CCCCn1c(=O)ccc2cnc(Nc3ccc(O)c(Cl)c3)nc21 [Example 383, 8-Butyl-2-(3-chloro-4-hydroxy-phenylamino)-8H-pyrido[2,3-d]pyrimidin-7-one] | 96.5 nM | 46.5 nM | 25.3 nM | 45.5 nM | 160 nM |  |  | 
CCC(C)n1c(=O)ccc2cnc(Nc3cccc(S(N)(=O)=O)c3)nc21 (centres unmarked) [Example 469, 3-(8-sec-Butyl-7-oxo-7,8-dihydro-pyrido[2,3-d]pyrimidin-2-ylamino)-benzenesulfonamide] | 240 nM | 9.6 nM | 46 nM | 90 nM | 30 nM |  |  | 
O=c1ccc2cnc(Nc3ccc4[nH]ccc4c3)nc2n1CC1CC1 [Example 563, 8-Cyclopropylmethyl-2-(1H-indol-5-ylamino)-8H-pyrido[2,3-d]pyrimidin-7-one] | 320 nM | 86.5 nM | 103 nM | 156 nM | 87 nM |  |  | 
CCCn1c(=O)ccc2cnc(Nc3ccc(I)c(Cl)c3)nc21 [Example 344, 2-(3-Chloro-4-iodo-phenylamino)-8-propyl-8H-pyrido[2,3-d]pyrimidin-7-one] | 990 nM | 46 nM | 470 nM | 360 nM | 370 nM |  |  | 
COc1ccc(Nc2ncc3ccc(=O)n(C4CCCC4)c3n2)cc1OC [Example 541, 8-Cyclopentyl-2-(3,4-dimethoxy-phenylamino)-8H-pyrido[2,3-d]pyrimidin-7-one] | 41.5 nM | 13.5 nM | 22.3 nM | 59.5 nM | 110 nM |  |  | 
CCCn1c(=O)ccc2cnc(Nc3ccc(C)c(Cl)c3)nc21 [Example 347, 2-(3-Chloro-4-methyl-phenylamino)-8-propyl-8H-pyrido[2,3-d]pyrimidin-7-one] | 580 nM | 35 nM | 120 nM | 140 nM | 58 nM |  |  | 
O=c1ccc2cnc(Nc3ccc4[nH]ccc4c3)nc2n1CC(F)(F)F [Example 593, 2-(1H-Indol-5-ylamino)-8-(2,2,2-trifluoro-ethyl)-8H-pyrido[2,3-d]pyrimidin-7-one] | 2700 nM | 695 nM | 1370 nM | 960 nM | 905 nM |  |  | 
O=c1ccc2cnc(Nc3cccc(O)c3)nc2n1CC1CC1 [Example 578, 8-Cyclopropylmethyl-2-(3-hydroxy-phenylamino)-8H-pyrido[2,3-d]pyrimidin-7-one] | 190 nM | 110 nM | 170 nM | 310 nM | 140 nM |  |  | 
NS(=O)(=O)c1ccc(Nc2ncc3ccc(=O)n(CC4CC4)c3n2)cc1 [Example 571, 4-(8-Cyclopropylmethyl-7-oxo-7,8-dihydro-pyrido[2,3-d]pyrimidin-2-ylamino)-benzenesulfonamide] | 15 nM | 8.8 nM | 5.1 nM | 29 nM | 65 nM |  |  | 
CC(=O)Nc1cc(Nc2ncc3ccc(=O)n(CC4CC4)c3n2)ccc1C#N [Example 574, N-[2-Cyano-5-(8-cyclopropylmethyl-7-oxo-7,8-dihydro-pyrido[2,3-d]pyrimidin-2-ylamino)-phenyl]-acetamide] | 520 nM | 140 nM | 270 nM | 290 nM | 80 nM |  |  | 
CCCn1c(=O)ccc2cnc(Nc3ccc(C#N)c(NC(C)=O)c3)nc21 [Example 340, N-[2-Cyano-5-(7-oxo-8-propyl-7,8-dihydro-pyrido[2,3-d]pyrimidin-2-ylamino)-phenyl]-acetamide] | 960 nM | 170 nM | 350 nM | 1300 nM | 310 nM |  |  | 
2-(4-Chloro-3-methyl-phenylamino)-8-isopropyl-8H-pyrido[2,3-d]pyrimidin-7-one [Example 416] |  | 38 nM |  |  | 180 nM | 350 nM | 220 nM | 280 nM
CCCCn1c(=O)ccc2cnc(Nc3ccc(OC)c(F)c3)nc21 [Example 394, 8-Butyl-2-(3-fluoro-4-methoxy-phenylamino)-8H-pyrido[2,3-d]pyrimidin-7-one] | 340 nM | 150 nM | 120 nM | 360 nM | 120 nM |  |  | 
CCCCn1c(=O)ccc2cnc(Nc3ccc(C(N)=O)cc3)nc21 [Example 371, 4-(S-Butyl-7-oxo-7,8-dihydro-pyrido[2,3-d]pyrimidin-2-ylamino)-benzamide] |  | 234 nM |  |  | 331 nM | 699 nM | 286 nM | 372 nM
CCC(C)n1c(=O)ccc2cnc(Nc3ccc(I)c(Cl)c3)nc21 (centres unmarked) [Example 464, 8-sec-Butyl-2-(3-chloro-4-iodo-phenylamino)-8H-pyrido[2,3-d]pyrimidin-7-one] | 310 nM | 17 nM | 130 nM | 170 nM | 150 nM |  |  | 
CCCn1c(=O)ccc2cnc(Nc3ccc4c(c3)CCN4)nc21 [Example 357, 2-(2,3-Dihydro-1H-indol-5-ylamino)-8-propyl-8H-pyrido[2,3-d]pyrimidin-7-one] | 1600 nM | 290 nM | 700 nM | 2100 nM | 360 nM |  |  | 
CC(C)n1c(=O)ccc2cnc(Nc3cc(Cl)cc(Cl)c3)nc21 [Example 429, 2-(3,5-Dichloro-phenylamino)-8-isopropyl-8H-pyrido[2,3-d]pyrimidin-7-one] | 860 nM | 39 nM | 120 nM | 230 nM | 560 nM |  |  | 
O=c1ccc2cnc(Nc3ccc(O)cc3F)nc2n1CC1CC1 [Example 566, 8-Cyclopropylmethyl-2-(2-fluoro-4-hydroxy-phenylamino)-8H-pyrido[2,3-d]pyrimidin-7-one] | 615 nM | 255 nM | 187 nM | 445 nM | 855 nM |  |  | 
Cc1cc(Nc2ncc3ccc(=O)n(C(C)C)c3n2)ccc1F [Example 408, 2-(4-Fluoro-3-methyl-phenylamino)-8-isopropyl-8H1-pyrido[2,3-d]pyrimidin-7-one] | 150 nM | 13 nM | 110 nM | 190 nM | 130 nM |  |  | 
CCCn1c(=O)ccc2cnc(Nc3ccc(Br)c(C(F)(F)F)c3)nc21 [Example 314, 2-(4-Bromo-3-trifluoromethyl-phenylamino)-8-propyl-8H-pyrido[2,3-d]pyrimidin-7-one] | 2370 nM | 114 nM | 520 nM | 429 nM | 2120 nM |  |  | 
O=c1ccc2cnc(Nc3ccc(O)c(Cl)c3)nc2n1CC(F)(F)F [Example 597, 2-(3-Chloro-4-hydroxy-phenylamino)-8-(2,2,2-trifluoro-ethyl)-8H-pyrido[2,3-d]pyrimidin-7-one] | 1010 nM | 250 nM | 317 nM | 435 nM | 2000 nM |  |  | 
Cc1ccc(Nc2ncc3ccc(=O)n(C4CCCC4)c3n2)cc1NS(C)(=O)=O [Example 555, N-[5-(8-Cyclopentyl-7-oxo-7,8-dihydro-pyrido[2,3-d]pyrimidin-2-ylamino)-2-methyl-phenyl]-methanesulfonamide] | 160 nM | 60 nM | 99 nM | 220 nM | 69 nM |  |  | 
